Measured values as given in US11110070B2 (priority 2015, dated 2021).
“Also recorded” adds a separate entry of the source.

How the values were obtained:
[1] = test system: 129S6/SvEvTac mice; experiment: FST after reinstatement; format: in vivo
Method: The FST was administered as previously described (Richardson-Jones et al., 2010; Brachman et al., 2016).

[2] = test system: 129S6/SvEvTac mice; experiment: Novelty suppressed feeding (NSF) in SD experiments; format: in vivo
Method: Testing was performed as previously described (A13). Briefly, the testing apparatus consisted of a plastic box (50×50×20 cm). The floor was covered with approximately 2 cm of wooden bedding and the arena was brightly lit (1100-1200 lux). For 129S6/SvEv experiments, mice were food restricted for 12 h. For the C57BL/6N experiments, mice were food restricted for 24 h. All food was removed from the home cage. At the time of testing, a single pellet of food (regular chow) was placed on a white paper platform positioned in the center of the box. Each animal was placed in a corner of the box, and a stopwatch was immediately started. The latency of the mice to begin eating was recorded. Immediately after the latency was recorded, the food pellet was removed from the arena. The mice were then placed into a cage and the amount of food consumed in 5 min was measured (home cage consumption), followed by an assessment of post-restriction weight. We used the Kaplan-Meier survival analysis due to the lack of normal distribution of data. The Mantel-Cox log-rank test was used to evaluate differences between the experimental groups.

[3] = test system: 129S6/SvEvTac mice; experiment: 3-shock CFC, extinction and reinstatement paradigm; format: in vivo
Method: A single injection of saline (0.9% NaCl) far ketamine (30 mg kg^−1) (Ketaset III, Ketamine HCl injection, Fort Dodge Animal Health, Forth Dodge, Iowa) was administered once during the course of each experiment.
A 3-shock CFC paradigm was administered as previously described (Drew et al., 2010; Denny et al., 2014). Mice were placed in the conditioning chamber and received 3 shocks 180, 240, and 300 s later (2 s, 0.75 mA) and were removed 15 s following the last shock. All sessions were scored for freezing using FreezeView2http://actimetrics.com/downloads/freezeframe/).
Extinction began 4 days after the initial 3-shock CFC procedure, or 4 days after the reinstatement procedure. Each group of mice was subjected to 2 extinction trials per day. Each extinction trial lasted 30 min, with an intertrial interval of at least 2 h. For each extinction trial, mice were placed in the same box used for CFC without receiving foot shocks. All trials were scored for freezing. The freezing presented throughout the text represents averaged freezing behavior for the first 3 min of each extinction trial.
Reinstatement took place in the same Coulbourn fear conditioning box, but with altered cues. A 1-shock CFC paradigm was administered as previously described (Drew et al., 2010; Denny et al., 2012; Denny et al., 2014), with the exception of two experiments in which the mice were administered 3 shocks.

[4] = test system: C57BL/6NTac mice; experiment: FST in chronic corticosterone (CORT) model; format: in vivo
[5] = Body weight in CORT model; format: in vivo, mice; settings: ketamine 90 mg kg^−1 single injection or fluoxetine 18 mg kg^−1 for 3 weeks, before CORT
[6] = ketamine 1 week prior to 3-shock reinstatement
[7] = ketamine 1 week before CFC, vs saline

## CNC1(c2ccccc2Cl)CCCCC1=O (racemic) [ketamine, (RS)-2-(2-chlorophenyl)-2-(methylamino)cyclohexanone]
[1]; ketamine 1 week prior to 1-shock reinstatement
  time immobile in the FST: equal levels of immobility
[1]; [6]
  time immobile in the FST: equal levels of immobility in the FST
[2]; Ctrl mice, ketamine in post-SD design, vs saline
  latency to eat in NSF: decreased the latency to eat; also recorded: significantly decreased the latency to approach the food pellet
[2]; SD mice, ketamine after SD, vs SD-Sal
  latency to eat in NSF: abolished; also recorded: did not differ from one another
[2]; ketamine 30 mg kg^−1 before SD
  latency to feed in NSF: no significant effect
[3]; ketamine 30 mg kg^−1 1 week before CFC, vs saline
  freezing during 3-shock CFC training: comparable levels of freezing
[3]; ketamine 1 month before CFC
  fear response (freezing) during CFC training: did not result in a decreased fear response
  freezing behavior during extinction: did not alter freezing behavior during extinction
[3]; [7]
  fear, first trial of extinction vs first trial of re-extinction (E1 vs. E9): significantly decreased levels of fear
  freezing during the first extinction exposure: significantly less freezing behavior
[3]; ketamine 1 week following CFC, 1 week prior to extinction
  fear expression during extinction training: did not alter fear expression during extinction training; also recorded: equal levels of freezing behavior during all extinction trials
[3]; ketamine 1 week prior to 1-shock reinstatement (24 h after the last extinction trial)
  subsequent fear expression (reinstatement, secondary extinction): did not alter subsequent fear expression; also recorded: equal levels of freezing behavior during reinstatement and during secondary extinction trials
[3]; [6]
  fear expression (reinstatement, secondary extinction): did not alter fear expression; also recorded: comparable levels of fear behavior
[3]; ketamine 1 h after 3-shock reinstatement
  fear expression during the first re-exposure: buffered fear expression during the first re-exposure
[3]; ketamine 1 h after 3-shock reinstatement, vs saline
  freezing throughout secondary extinction: transiently decreased freezing throughout extinction; also recorded: decreased fear
[3]; ketamine 1 h before CFC
  freezing during extinction: froze comparably during extinction; also recorded: equal levels of freezing behavior during almost all extinction trials
[3]; ketamine 1 h following 1-shock reinstatement
  subsequent fear expression (secondary extinction trials): did not alter subsequent fear expression; also recorded: comparable levels of fear behavior during secondary extinction trials
[3]; ketamine 1 h following 3-shock CFC training
  fear expression during extinction: did not alter fear expression during extinction; also recorded: equal levels of freezing behavior during all extinction trials
[3]; ketamine 1 h prior to extinction
  fear expression during extinction training: did not alter fear expression during extinction training; also recorded: equal levels of freezing behavior during all extinction trials
[3]; ketamine 24 h before CFC
  freezing behavior during extinction: did not alter
[3]; ketamine 24 h following 3-shock reinstatement
  subsequent fear expression (secondary extinction trials): did not alter subsequent fear expression; also recorded: comparable levels of freezing behavior
[4]; C57BL/6NTac mice, doses tested 10, 30, 90 mg kg^−1
  most effective dose in protecting against depressive-like behavior following chronic CORT: 90 mg/kg
[4]; CORT model
  persistence of ketamine-induced resilience post-injection: ≥ 4 weeks
[4]; ketamine 90 mg kg^−1 or fluoxetine 18 mg kg^−1/day, before 3 weeks of CORT
  immobility time on day 2 in the FST: decreased immobility time; also recorded: significantly reduced immobility
[5]
  CORT-induced increase in body weight: prevented the CORT-induced increase in body weight
